Data on 3 compounds can be found in patent publication US7300930B2, “Therapeutic acridone and acridine compounds” (Cancer Research Technology Limited, priority 2000, dated 2007).

Data set [1] in a line: Growth inhibition, sulforhodamine B (SRB) assay, A431. In kind it is cell-based. Particulars: human, A431 cervix carcinoma cells, A431, 96 hr incubation, tested as salts, read-out: Cytotoxicity - IC50 A431. On the procedure: (§1) Growth inhibition was measured in three human ovarian carcinoma cell lines (A2780, CH1, and SKOV-3) and one human cervix carcinoma cell line (A431) using the sulforhodamine B (SRB) assay. Briefly, between 3000 and 6000 cells were seeded into the wells of 96-well microtiter plates and allowed to attach overnight. Compounds (acid addition and quaternary dimethiodide salts) were dissolved at 500 μM in water and immediately added to wells in quadruplicate at final concentrations of 0.05, 0.25, 1, 5 and 25 μM. Following an incubation period of 96 hr, remaining cells were fixed with ice-cold 10% w/v trichloroacetic acid (30 min) and stained with 0.4% SRB in 1% v/v acetic acid (15 min). Mean absorbance at 540 nm for each drug concentration was expressed as a percentage of the control untreated well absorbance, and IC50 values (concentration required to inhibit cell growth by 50%) were determined for each agent.

Data set [2] deals with telomerase (Homo sapiens, UniProt O14746). The experiment in a line: Modified telomeric repeat amplification protocol (TRAP) assay, cell-free. It is filed as biochemical. Particulars: extracts from A2780 cells, tested as salts, read-out: telIC50 (Telomerase Inhibitory Activity). On the procedure: The ability of compounds to inhibit telomerase in a cell-free assay was assessed with a modified TRAP assay using extracts from exponentially growing A2780 human ovarian carcinoma cells. The TRAP assay was performed in 2 steps: (a) telomerase-mediated extension of the forward primer (TS: 5′-AATCCGTCGAGCAGAGTT (SEQ ID NO:3), Oswel Ltd., Southampton, UK) contained in a 40 µL reaction mix comprising TRAP buffer (20 mM Tris-HCl (pH 8.3), 68 mM KCl, 1.5 mM MgCl2, 1 mM EGTA, 0.05% v/v Tween 20), 0.05 μg bovine serum albumin, 50 μM of each deoxynucleotide triphosphate, 0.1 μg TS primer, and 3 μCi of [α-^32P]dCTP (Amersham plc, UK). Protein (40 ng or 20 ng) was then incubated with the reaction mix+agent (acid addition and quaternary dimethiodide salts) at final concentrations of up to 50 μM for 20 min at 25° C. A lysis buffer (no protein) control, heat-inactivated protein control, and 50% protein (20 ng or 10 ng) control were included in each assay; and (b) while heating at 80° C. in a PCR block of a thermal cycler (Hybaid, UK) for 5 min to inactivate telomerase activity, 0.1 μg of reverse CX primer (3′-[…]-5′ (SEQ ID NO:4)) and 2 Units of Taq DNA polymerase (“red hot”, Advanced Biotechnologies) were added. A 3-step PCR was then performed: 94° C. for 30 s, 50° C. for 30 s, and 72° C. for 1 min for 31 cycles. Telomerase-extended PCR products in the presence or absence of compounds were then determined either by electrophoretic separation using 8% w/w acrylamide denaturing gels and analysis by phosphorimaging or autoradiography, or by harvesting on Whatman filters (25 mm glass microfibre) and analysis by liquid scintillation counting.

Data set [3] is described as follows: Growth inhibition, sulforhodamine B (SRB) assay, A2780. It is filed as cell-based. Particulars: human, A2780 ovarian carcinoma cells, A2780, 96 hr incubation, tested as salts, read-out: Cytotoxicity - IC50 A2780. As for the experimental part:
as §1

Data set [4] is described as follows: Growth inhibition, sulforhodamine B (SRB) assay, SKOV-3. In kind it is cell-based. Particulars: human, SKOV-3 ovarian carcinoma cells, SKOV-3, 96 hr incubation, tested as salts, read-out: Cytotoxicity - IC50 SKOV-3. As for the experimental part:
as §1

In data set [5] the test system is human telomerase. Particulars: as described by Read et al., April 2001; cited from earlier work.
Data set [6] in a line: Growth inhibition, sulforhodamine B (SRB) assay, CH1. In kind it is cell-based. Particulars: human, CH1 ovarian carcinoma cells, CH1, 96 hr incubation, tested as salts, read-out: Cytotoxicity - IC50 CH1. As for the experimental part: as §1
(In general: Sulforhodamine B stains cellular protein and so reports cell mass.)

pIC50: −log10 of the molar value.

telomerase, sequence (O14746 whole entry): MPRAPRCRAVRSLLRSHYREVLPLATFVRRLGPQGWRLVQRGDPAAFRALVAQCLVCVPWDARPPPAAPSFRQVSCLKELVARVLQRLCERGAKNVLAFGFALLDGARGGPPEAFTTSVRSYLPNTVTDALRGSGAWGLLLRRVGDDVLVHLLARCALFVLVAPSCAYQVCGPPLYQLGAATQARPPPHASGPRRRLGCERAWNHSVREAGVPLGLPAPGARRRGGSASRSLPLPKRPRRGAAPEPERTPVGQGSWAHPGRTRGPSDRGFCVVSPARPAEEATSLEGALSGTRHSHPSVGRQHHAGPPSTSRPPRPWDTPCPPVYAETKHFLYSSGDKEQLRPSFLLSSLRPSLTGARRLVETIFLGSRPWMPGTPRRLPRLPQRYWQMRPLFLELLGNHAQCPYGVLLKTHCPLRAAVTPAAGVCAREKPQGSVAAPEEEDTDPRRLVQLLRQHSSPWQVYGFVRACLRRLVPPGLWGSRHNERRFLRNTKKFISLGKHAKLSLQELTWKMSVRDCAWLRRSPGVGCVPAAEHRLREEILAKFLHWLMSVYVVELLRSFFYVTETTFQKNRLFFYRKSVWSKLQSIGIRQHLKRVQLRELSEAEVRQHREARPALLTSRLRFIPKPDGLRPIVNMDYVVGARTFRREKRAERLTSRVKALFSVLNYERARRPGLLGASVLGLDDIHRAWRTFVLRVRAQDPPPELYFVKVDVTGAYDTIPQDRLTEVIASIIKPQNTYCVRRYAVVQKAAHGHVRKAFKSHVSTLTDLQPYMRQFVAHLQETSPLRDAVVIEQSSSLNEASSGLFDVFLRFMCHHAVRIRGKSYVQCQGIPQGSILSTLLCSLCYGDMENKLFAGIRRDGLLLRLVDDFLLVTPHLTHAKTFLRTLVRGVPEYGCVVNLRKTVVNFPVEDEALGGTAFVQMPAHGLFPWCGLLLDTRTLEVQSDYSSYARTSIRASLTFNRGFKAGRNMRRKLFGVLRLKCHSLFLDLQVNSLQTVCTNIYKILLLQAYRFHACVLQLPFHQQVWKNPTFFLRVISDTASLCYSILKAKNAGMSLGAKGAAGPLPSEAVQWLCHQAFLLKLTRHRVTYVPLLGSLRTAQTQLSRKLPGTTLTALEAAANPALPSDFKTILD

For orientation: IC50 means the concentration at which inhibition is half-maximal. `CN(C)c1ccc(Nc2c3ccc(NC(=O)CCN4CCCC4)cc3nc3cc(NC(=O)CCN4CCCC4)ccc23)cc1` [BR-ACO-19, N-{9-[4′-(N,N-Dimethylamino)phenylamino]}-3,6-bis(3-pyrrolidinopropionamido)acridine]: the concentration for half-maximal inhibition (IC50) at 96 h came to 15.8 µM in data set [1], 10 µM in data set [3], 13 µM in data set [4] and 10.1 µM in data set [6]. In data set [2], the pIC50 is 7.02. Besides, the “in vitro inhibitory activity against human telomerase” value in data set [5] is given as “potent in vitro inhibitory activity”.

On to `Nc1ccc(Nc2c3ccc(NC(=O)CCN4CCCC4)cc3nc3cc(NC(=O)CCN4CCCC4)ccc23)cc1` [BR-ACO-20, N-[9-(4′-Aminophenylamino)]-3,6-bis(3-pyrrolidinopropionamido)acridine], for which the pIC50 in data set [2] is 7.22. In addition, the half-inhibitory concentration (IC50) at 96 h in data set [3], in data set [4] and in data set [6] was more than 25 µM in each case. The “in vitro inhibitory activity against human telomerase” value in data set [5] is “potent in vitro inhibitory activity”.

Take `CN1CCCC1CCNc1c2ccc(NC(=O)CCN3CCCC3)cc2nc2cc(NC(=O)CCN3CCCC3)ccc12` (stereo not shown) [SB-ACI-12, N-{9-[2-(2′-Aminoethyl)-1-methylpyrrolidino]}-3,6-bis(3-pyrrolidinopropionamido)acridine]: the IC50 at 96 h is not below 25 µM in data set [1], more than 25 µM in data set [3], more than 25 µM in data set [4] and more than 25 µM in data set [6]. In addition, in data set [2], the pIC50 is 7.74.
